Consider 1 molecule from PMC6441019, “Prospective discovery of small molecule enhancers of an E3 ligase-substrate interaction” (Nature Communications, 2019).

Assay [1] addresses T1, S33E/S37A β-catenin peptide binding to β-TrCP (Homo sapiens, UniProt P35222+Q9Y297, S33E/S37A).
T1 construct: titrating BODIPY-FL-labeled β-catenin peptides (residues 17-48) against 300 pM β-TrCP; 6xHis-SMT3 (N, cleaved yes); made in house; host or cells: E. coli (co-expressed with BirA)
As to the kind of experiment: TR-FRET peptide binding assay, S33E/S37A peptide. To be noted: read-out: binding affinity of S33E/S37A peptide. The method, then:
(§1) Compounds were incubated in a 20 μl reaction volume with 300 pM biotinylated β-TrCP/Skp1 preincubated with 1.2 nM terbium-coupled streptavidin (Cisbio) and BODIPY-FL labeled β-catenin peptides (see figure legends for peptide details) in a white 384-well microplate (Perkin Elmer ProxiPlate), using a PBS buffer containing 0.01% Triton X-100 and 2 mM DTT with 2% final DMSO. […] Following 1-h incubation, plates were read for TR-FRET signal after excitation at 320 nm and read at 520 and 620 nm using an EnVision plate reader (Perkin Elmer). TR-FRET signal was calculated using a 520/620 nm ratio. Binding and enhancement data were fit to a standard Hill equation (Y = Bmin + (Bmax − Bmin)(X^h)/(X^h + EC50^h)) in Prism (GraphPad). Errors are standard error of the fit.

For assay [2], the target named is T2, full-length Ser33/S37A β-catenin protein ubiquitylation by SCFβ-TrCP (Homo sapiens, UniProt P35222+Q9Y297, S37A).
T2 construct: 400 nM purified full-length S37A mutant β-catenin protein was ubiquitylated; 6xHis-SMT3 (N, cleaved yes); host or cells: HEK293T (β-catenin); E. coli (β-TrCP1/Skp1); E. coli or SF9 (Cul1-Rbx1)
In words: In vitro ubiquitylation of full-length Ser33/S37A β-catenin protein. The format is biochemical. The protocol:
Four micromolar of fluorescently-labeled β-catenin peptide (residues 17–60) were ubiquitylated in a buffer containing 25 mM Tris Cl (pH 7.5), 50 mM NaCl, 5 mM MgCl2, 2 mM ATP, and 1 mM DTT at room temperature in the presence of 62.5 μM Ubiquitin, 125 nM Ube1, 1.75 μM Cdc34A, and 100 nM neddylated SCF^β-TrCP in the presence or absence of compound (as indicated). Typically, individual reaction mixes with either Ubiquitin, Ube1 and Cdc34A or β-catenin, SCF^β-TrCP and compound were preincubated and subsequently mixed to initiate β-catenin ubiquitylation. Reactions were quenched by SDS loading buffer, resolved by SDS-PAGE and imaged for fluorescence. For full length β-catenin protein ubiquitylation 400 nM β-catenin and 400 nM SCF^β-TrCP were used instead.

In assay [3] the target is T3, Ser33/S37A β-catenin peptide binding to β-TrCP (Homo sapiens, UniProt P35222+Q9Y297, S37A).
T3 construct: titrating BODIPY-FL-labeled β-catenin peptides (residues 17-48) against 300 pM β-TrCP; 6xHis-SMT3 (N, cleaved yes); made in house; host or cells: E. coli (co-expressed with BirA)
In words: TR-FRET peptide binding assay, unphosphorylated Ser33/S37A peptide. The method, then:
as §1
In general terms: Time-resolved FRET reads energy transfer from a long-lived donor to a nearby acceptor.

Assay [4] deals with T1, S33E/S37A β-catenin peptide binding to β-TrCP. As to the kind of experiment: TR-FRET binding enhancement assay, S33E/S37A peptide. Particulars: 1% binding saturation. The method, then:
as §1

Assay [5] has as its target T4, pSer33/S37A β-catenin peptide binding to β-TrCP (Homo sapiens, UniProt P35222+Q9Y297, S37A).
T4 construct: titrating BODIPY-FL-labeled β-catenin peptides (residues 17-48) against 300 pM β-TrCP; 6xHis-SMT3 (N, cleaved yes); made in house; host or cells: E. coli (co-expressed with BirA)
As to the kind of experiment: TR-FRET peptide binding and cooperativity assay, pSer33/S37A peptide. The method, then: as §1

T1 sequence (Q9Y297 1-569 isoform Q9Y297-2, stated change not applied): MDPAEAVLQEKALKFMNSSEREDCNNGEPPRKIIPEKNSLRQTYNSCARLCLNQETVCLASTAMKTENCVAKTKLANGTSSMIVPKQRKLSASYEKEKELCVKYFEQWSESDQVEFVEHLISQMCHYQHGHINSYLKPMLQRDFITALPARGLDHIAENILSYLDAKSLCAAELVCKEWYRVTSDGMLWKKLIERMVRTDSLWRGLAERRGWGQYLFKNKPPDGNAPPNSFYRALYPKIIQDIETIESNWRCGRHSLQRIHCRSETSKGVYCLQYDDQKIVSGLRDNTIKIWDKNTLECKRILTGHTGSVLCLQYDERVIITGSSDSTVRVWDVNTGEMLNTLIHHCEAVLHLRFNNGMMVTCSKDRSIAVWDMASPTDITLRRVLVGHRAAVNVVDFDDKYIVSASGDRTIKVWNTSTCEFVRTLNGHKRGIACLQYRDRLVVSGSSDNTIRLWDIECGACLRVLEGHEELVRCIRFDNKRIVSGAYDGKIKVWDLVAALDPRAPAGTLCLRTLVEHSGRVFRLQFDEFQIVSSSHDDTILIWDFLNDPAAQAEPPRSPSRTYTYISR
T1 sequence (P63208 whole entry partner, the tested form may be a part): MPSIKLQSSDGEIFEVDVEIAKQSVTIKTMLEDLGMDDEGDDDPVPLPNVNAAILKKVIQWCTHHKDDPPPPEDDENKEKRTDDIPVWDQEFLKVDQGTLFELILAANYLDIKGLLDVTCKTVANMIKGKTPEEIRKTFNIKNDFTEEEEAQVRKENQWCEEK
T1 sequence (P35222 17-48 S33E/S37A limits assumed): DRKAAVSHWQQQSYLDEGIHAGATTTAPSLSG
T2 sequence (Q9Y297 1-569 isoform Q9Y297-2, stated change not applied): as the sequence (Q9Y297 1-569 isoform Q9Y297-2, stated change not applied) above
T2 sequence (P63208 whole entry partner): as the sequence (P63208 whole entry partner, the tested form may be a part) above
T2 sequence (Q13616 whole entry partner): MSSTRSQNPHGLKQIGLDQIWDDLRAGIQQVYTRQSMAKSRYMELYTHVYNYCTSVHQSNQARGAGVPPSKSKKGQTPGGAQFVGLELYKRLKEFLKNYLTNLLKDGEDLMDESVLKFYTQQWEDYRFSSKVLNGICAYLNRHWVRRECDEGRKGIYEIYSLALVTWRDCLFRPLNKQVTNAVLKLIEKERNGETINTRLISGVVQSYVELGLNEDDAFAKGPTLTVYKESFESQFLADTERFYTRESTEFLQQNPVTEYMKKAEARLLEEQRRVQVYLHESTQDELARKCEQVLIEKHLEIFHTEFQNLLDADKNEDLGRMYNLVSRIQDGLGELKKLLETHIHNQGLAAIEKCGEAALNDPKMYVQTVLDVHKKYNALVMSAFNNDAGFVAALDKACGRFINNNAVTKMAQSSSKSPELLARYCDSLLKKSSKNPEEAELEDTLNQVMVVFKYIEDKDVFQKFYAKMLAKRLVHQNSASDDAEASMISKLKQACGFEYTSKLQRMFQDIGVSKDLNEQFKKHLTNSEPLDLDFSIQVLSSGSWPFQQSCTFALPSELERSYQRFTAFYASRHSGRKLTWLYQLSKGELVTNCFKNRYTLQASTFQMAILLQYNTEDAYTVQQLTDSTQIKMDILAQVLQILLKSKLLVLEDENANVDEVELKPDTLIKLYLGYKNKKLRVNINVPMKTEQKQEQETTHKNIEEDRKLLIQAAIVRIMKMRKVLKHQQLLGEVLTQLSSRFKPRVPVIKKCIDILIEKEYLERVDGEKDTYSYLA
T2 sequence (P62877 whole entry partner): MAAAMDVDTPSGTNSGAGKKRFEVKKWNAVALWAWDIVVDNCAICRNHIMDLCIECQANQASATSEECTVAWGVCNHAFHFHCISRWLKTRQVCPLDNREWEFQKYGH
T2 sequence (Q15843 1-76 partner limits assumed): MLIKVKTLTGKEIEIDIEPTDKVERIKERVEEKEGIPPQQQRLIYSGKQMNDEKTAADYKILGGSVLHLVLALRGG
T2 sequence (P35222 whole entry S37A): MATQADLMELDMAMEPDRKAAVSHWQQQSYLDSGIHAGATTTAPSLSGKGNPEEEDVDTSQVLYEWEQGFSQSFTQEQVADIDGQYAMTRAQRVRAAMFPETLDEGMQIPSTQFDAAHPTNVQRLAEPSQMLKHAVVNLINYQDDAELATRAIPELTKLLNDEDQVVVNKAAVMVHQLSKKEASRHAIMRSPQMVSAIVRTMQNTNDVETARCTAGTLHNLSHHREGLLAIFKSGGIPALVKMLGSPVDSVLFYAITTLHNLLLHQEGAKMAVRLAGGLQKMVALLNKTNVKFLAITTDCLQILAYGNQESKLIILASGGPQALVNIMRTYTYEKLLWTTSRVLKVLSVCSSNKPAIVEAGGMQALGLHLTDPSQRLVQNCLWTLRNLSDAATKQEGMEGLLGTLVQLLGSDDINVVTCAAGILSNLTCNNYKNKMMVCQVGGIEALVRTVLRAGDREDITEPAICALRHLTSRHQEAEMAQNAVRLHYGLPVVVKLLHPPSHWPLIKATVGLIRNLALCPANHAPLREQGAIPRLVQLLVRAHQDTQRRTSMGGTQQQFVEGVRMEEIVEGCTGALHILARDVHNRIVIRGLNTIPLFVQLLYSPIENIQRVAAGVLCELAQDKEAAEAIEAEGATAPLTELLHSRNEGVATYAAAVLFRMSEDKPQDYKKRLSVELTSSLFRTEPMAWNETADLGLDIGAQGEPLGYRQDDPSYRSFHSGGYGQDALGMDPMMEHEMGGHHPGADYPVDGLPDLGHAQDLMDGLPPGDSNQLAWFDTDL
T3 sequence (Q9Y297 1-569 isoform Q9Y297-2, stated change not applied): as the sequence (Q9Y297 1-569 isoform Q9Y297-2, stated change not applied) above
T3 sequence (P63208 whole entry partner, the tested form may be a part): as the sequence (P63208 whole entry partner, the tested form may be a part) above
T3 sequence (P35222 17-48 S37A limits assumed): as the sequence (P35222 17-48 S33E/S37A limits assumed) above, with E17S counted along it
T4 sequence (Q9Y297 1-569 isoform Q9Y297-2, stated change not applied): as the sequence (Q9Y297 1-569 isoform Q9Y297-2, stated change not applied) above
T4 sequence (P63208 whole entry partner, the tested form may be a part): as the sequence (P63208 whole entry partner, the tested form may be a part) above
T4 sequence (P35222 17-48 S37A limits assumed): as the sequence (P35222 17-48 S33E/S37A limits assumed) above, with E17S counted along it

Regarding `N#Cc1cccc2c1CN(C(=O)c1c(Sc3c(Cl)cccc3Cl)cc(C(F)(F)F)[nH]c1=O)C2` [NRX-252114], the Kd in assay [1] was determined as 6 nM; in assay [3] (read-out: binding affinity of non-phosphorylated peptide), 180 nM. In addition, the “ubiquitylation of full-length Ser33/S37A β-catenin, comparison of enhancers” value in assay [2] is given as “higher degree of ubiquitylation than NRX-103094”. In addition, the “level of ubiquitylation of full-length Ser33/S37A β-catenin” value in assay [2] (40 μM compound) is recorded as “approaches that of WT full-length protein”. Moreover, the “enhancement in PPI binding affinity” value in assay [3] (20 μM NRX-252114) is listed as above 500 fold. The EC50 in assay [4] was 1100 ± 30 nM. Also, the “cooperativity of peptide binding to β-TrCP” value in assay [5] is given as above 1500 fold.

As a reminder, the EC50 is the concentration that produces a half-maximal response.
